These results are taken from PubChem BioAssay (NCI).

Test systems include COLO 205 colon; HS 578T breast; K-562 leukemia; LOX IMVI melanoma; MDA-MB-231 breast; MDA-MB-435; MOLT-4 leukemia; NCI/ADR-RES ovarian; OVCAR-5 ovarian; SK-MEL-2 melanoma; SK-MEL-28 melanoma; SNB-75 CNS; TK-10 renal; UO-31 renal.
Assay in all cases: inhibition of tumour cell growth, NCI panel, 48 h

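48-hour exposure; five concentrations; linearly interpolated endpoints. TGI denotes the concentration required for complete inhibition of growth.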

Take `Cc1cc(N2CCOCC2)nc2ccc(Cc3ccc4nc(N5CCOCC5)cc(C)c4c3)cc12`: the TGI in the assay with COLO 205 colon is 26.8 µM; with HS 578T breast, above 100 µM; with K-562 leukemia it was above 100 µM; in the assay on LOX IMVI melanoma, above 100 µM; in the assay with MDA-MB-231 breast, above 100 µM; with MDA-MB-435, above 100 µM. Moreover, the TGI in the assay on MOLT-4 leukemia, with NCI/ADR-RES ovarian, with OVCAR-5 ovarian, in the assay on SK-MEL-2 melanoma, in the assay on SK-MEL-28 melanoma and in the assay on SNB-75 CNS was above 100 µM throughout. For the same compound, the TGI in the assay on TK-10 renal and in the assay with UO-31 renal was above 100 µM throughout.
As to `CC(C)(C)OC(=O)N(O)[C@@H]1CC[C@H](n2cnc3c(N)ncnc32)C1`, the TGI in the assay with COLO 205 colon, with HS 578T breast, with K-562 leukemia, with LOX IMVI melanoma, in the assay on MDA-MB-231 breast and in the assay on MDA-MB-435 was above 100 µM throughout. Moreover, the TGI with MOLT-4 leukemia, in the assay with NCI/ADR-RES ovarian, in the assay on OVCAR-5 ovarian, in the assay with SK-MEL-2 melanoma, with SK-MEL-28 melanoma and in the assay on SNB-75 CNS was above 100 µM each time. The TGI with TK-10 renal and in the assay with UO-31 renal was above 100 µM in each case.
As for `O=Cc1cn(CCCCCCCCn2cc(C=O)c3ccccc32)c2ccccc12`, the TGI in the assay on COLO 205 colon, in the assay with HS 578T breast, in the assay with K-562 leukemia, in the assay on LOX IMVI melanoma, in the assay with MDA-MB-231 breast and in the assay on MDA-MB-435 was above 10 µM each time. The TGI with MOLT-4 leukemia, in the assay on NCI/ADR-RES ovarian, in the assay on OVCAR-5 ovarian, in the assay on SK-MEL-2 melanoma, in the assay with SK-MEL-28 melanoma and in the assay with SNB-75 CNS was above 10 µM each time. For the same compound, the TGI in the assay with TK-10 renal and in the assay on UO-31 renal was above 10 µM throughout.
On to `CCCCCCCCOC(=O)C12Oc3ccc(-c4ccc5c(c4O)C(O)=C4C(=O)CC(C)C(O)C4(C(=O)OCCCCCCCC)O5)c(O)c3C(O)=C1C(=O)CC(C)C2O` (stereo unspecified), for which the TGI in the assay with COLO 205 colon is 65.3 µM; with HS 578T breast, above 100 µM; with K-562 leukemia, 17.4 µM; in the assay on LOX IMVI melanoma it was above 100 µM; in the assay with MDA-MB-231 breast, 59.7 µM; in the assay on MDA-MB-435 it was above 100 µM. Besides, the TGI is 60.6 µM with MOLT-4 leukemia; above 100 µM in the assay with NCI/ADR-RES ovarian; 96.2 µM in the assay on OVCAR-5 ovarian; 47.4 µM in the assay with SK-MEL-2 melanoma; above 100 µM with SK-MEL-28 melanoma; 25.5 µM in the assay on SNB-75 CNS. In addition, the results for the TGI with TK-10 renal and in the assay with UO-31 renal were above 100 µM and 92.2 µM, respectively.
